From publication PMC10245146, “CNS4 causes subtype‐specific changes in agonist efficacy and reversal potential of permeant cations in NMDA receptors” (Pharmacology Research & Perspectives, 2023)
Several values for one entry are separate records, joined by “and”; a condition that tells them apart may be missing. Equal values may be shown once.

Assays:
GluN1/2D NMDA receptors = biological target: T1, GluN1/2D NMDA receptors (UniProt O15399+P35439); assay: TEVC antagonist block of agonist-induced currents, 1/2D; assay type: cell-based; conditions: 100 μM glutamate and glycine
T1 construct: host or cells: Xenopus oocytes (cRNA injection)
T1 sequence (O15399 28-1336, other chains not shown): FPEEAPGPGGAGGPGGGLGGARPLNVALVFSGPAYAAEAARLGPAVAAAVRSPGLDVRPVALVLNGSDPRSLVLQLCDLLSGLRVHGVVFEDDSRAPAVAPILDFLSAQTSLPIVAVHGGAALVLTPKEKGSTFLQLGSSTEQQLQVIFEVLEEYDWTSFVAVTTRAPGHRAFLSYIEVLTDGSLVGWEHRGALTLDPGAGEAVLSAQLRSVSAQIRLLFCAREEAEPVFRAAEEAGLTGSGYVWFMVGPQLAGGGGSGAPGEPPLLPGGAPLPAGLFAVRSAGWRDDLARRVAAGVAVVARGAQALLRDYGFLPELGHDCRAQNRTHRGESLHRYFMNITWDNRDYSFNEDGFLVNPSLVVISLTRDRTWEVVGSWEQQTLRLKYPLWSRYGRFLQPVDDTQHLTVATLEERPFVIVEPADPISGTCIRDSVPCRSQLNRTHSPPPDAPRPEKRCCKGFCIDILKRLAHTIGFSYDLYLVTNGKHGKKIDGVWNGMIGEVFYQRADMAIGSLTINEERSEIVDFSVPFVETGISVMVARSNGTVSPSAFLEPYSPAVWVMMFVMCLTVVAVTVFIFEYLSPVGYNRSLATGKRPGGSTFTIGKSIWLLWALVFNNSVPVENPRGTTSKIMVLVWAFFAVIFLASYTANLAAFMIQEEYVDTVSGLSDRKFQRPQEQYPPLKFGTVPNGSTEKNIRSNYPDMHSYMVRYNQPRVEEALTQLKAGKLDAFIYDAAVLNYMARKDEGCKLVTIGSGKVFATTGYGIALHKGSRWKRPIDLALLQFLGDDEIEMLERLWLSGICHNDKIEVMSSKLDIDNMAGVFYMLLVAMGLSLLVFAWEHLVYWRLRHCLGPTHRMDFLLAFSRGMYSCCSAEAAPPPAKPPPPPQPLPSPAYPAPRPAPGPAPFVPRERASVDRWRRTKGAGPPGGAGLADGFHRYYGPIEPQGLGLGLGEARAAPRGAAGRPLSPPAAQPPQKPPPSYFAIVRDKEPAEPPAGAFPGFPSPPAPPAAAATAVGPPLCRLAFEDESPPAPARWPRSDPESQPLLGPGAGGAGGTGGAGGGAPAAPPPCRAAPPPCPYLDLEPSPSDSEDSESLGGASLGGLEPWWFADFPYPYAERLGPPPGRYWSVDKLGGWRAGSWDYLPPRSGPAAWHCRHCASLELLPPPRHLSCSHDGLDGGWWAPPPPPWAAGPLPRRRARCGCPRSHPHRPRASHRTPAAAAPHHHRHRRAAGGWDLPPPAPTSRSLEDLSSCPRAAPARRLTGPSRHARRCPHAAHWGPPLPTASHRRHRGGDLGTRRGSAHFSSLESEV
Procedure: (§1) Electrophysiological responses were measured using a standard two‐microelectrode voltage‐clamp workstation (Warner Instruments model OC‐725C) designed to provide a fast clamp of large cells. The recording buffer contained 116 mM NaCl, 2 mM KCl, 0.3 mM BaCl2, and 5 mM HEPES, pH 7.4. Response magnitude was determined in Xenopus oocytes expressing different NMDA receptor subunits (GluN1/2A, 1/2B, 1/2C, 1/2D, and 1/2A/2B) by the steady plateau response elicited by bath application of different agonist concentrations. […] All data points were obtained from the steady state currents unless stated otherwise. Dose–response relationships were fit to an appropriate curve‐fitting equation using GraphPad Prism‐7. Non‐linear regression was used to calculate EC50, IC50, and fold change or percentage maximal response. Curves were fit using the following equations as performed in the previous studies, [37]: Y=100/1+10^LogEC50−XorY=Bottom+Top−Bottom/1+10^LogEC50−X . Statistical significance was determined at the overall alpha level 0.05, using appropriate statistical methods as described in all figure captions. Technical and biological replicates are explicitly mentioned in each figure legend, as n = X (Y). X represents technical repeats (number of traces) and Y represents biological repeats (number of oocytes or HEK293T cells studied). […] For the data sets with nonparametric distribution, Wilcoxon signed rank test is a nonparametric test was used (Figure 1). Paired or unpaired t‐tests were for used only compare the datasets obtained with and without CNS4 dose response curves.
(§2) If CNS4 directly competes with GluN1 or GluN2 competitive antagonists or indirectly influences the activity, there should be a change in DCKA and/ or DL‐AP5 activity in blocking agonist‐induced currents.
FIGURE 4 Effect of CNS4 on competitive and uncompetitive NMDA receptor antagonists. […] A similar experiment was performed with 100 μM DL‐AP5. […] Paired student‐t test was performed to calculate the statistical significance. […]

GluN1/2A NMDA receptors = biological target: T2, GluN1/2A NMDA receptors (UniProt P35439+Q12879); assay: TEVC antagonist block of agonist-induced currents, 1/2A; assay type: cell-based; conditions: 100 μM glutamate and glycine, n = 7 (7)
T2 construct: expressed in transfected cells; host or cells: Xenopus oocytes (cRNA injection)
T2 sequence (Q12879 23-1464, other chains not shown): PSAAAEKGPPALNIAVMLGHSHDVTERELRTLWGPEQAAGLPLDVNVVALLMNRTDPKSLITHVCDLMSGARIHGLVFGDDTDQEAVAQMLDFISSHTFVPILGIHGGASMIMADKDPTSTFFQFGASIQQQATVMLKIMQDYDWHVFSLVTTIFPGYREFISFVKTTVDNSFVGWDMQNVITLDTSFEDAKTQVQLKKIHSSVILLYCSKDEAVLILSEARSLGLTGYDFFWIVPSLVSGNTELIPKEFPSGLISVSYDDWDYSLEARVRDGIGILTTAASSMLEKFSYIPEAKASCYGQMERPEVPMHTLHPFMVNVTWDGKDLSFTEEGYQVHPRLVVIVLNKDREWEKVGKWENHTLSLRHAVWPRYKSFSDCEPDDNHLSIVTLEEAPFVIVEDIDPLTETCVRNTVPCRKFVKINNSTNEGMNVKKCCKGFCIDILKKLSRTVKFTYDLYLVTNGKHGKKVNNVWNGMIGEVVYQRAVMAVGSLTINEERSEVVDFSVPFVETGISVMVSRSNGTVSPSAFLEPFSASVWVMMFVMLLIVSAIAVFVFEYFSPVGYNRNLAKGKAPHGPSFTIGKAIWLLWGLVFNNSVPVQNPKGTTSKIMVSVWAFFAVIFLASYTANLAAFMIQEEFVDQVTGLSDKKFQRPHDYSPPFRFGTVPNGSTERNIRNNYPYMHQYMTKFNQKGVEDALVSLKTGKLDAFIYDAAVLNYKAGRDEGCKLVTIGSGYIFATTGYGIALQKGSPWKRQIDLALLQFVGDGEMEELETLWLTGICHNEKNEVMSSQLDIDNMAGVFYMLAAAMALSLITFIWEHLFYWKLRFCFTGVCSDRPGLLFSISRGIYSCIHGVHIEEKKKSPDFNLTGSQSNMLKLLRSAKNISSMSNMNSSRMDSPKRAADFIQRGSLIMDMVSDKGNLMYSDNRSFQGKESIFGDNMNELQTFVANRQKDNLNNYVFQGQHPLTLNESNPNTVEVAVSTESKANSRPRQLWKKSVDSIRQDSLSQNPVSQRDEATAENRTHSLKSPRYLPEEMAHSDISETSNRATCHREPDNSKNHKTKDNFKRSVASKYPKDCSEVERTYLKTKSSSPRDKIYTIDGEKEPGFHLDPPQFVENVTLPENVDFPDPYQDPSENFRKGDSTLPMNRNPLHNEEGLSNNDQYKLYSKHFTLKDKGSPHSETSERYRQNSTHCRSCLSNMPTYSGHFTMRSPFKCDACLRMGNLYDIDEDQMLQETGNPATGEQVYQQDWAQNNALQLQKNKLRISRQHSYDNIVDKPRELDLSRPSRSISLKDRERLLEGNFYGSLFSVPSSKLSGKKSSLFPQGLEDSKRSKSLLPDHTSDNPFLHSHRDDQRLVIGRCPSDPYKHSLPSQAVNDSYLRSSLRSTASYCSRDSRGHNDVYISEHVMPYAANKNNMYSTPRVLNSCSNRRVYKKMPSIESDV
Procedure: as §1, §2
FIGURE 4 Effect of CNS4 on competitive and uncompetitive NMDA receptor antagonists. […] A similar experiment was performed with 100 μM DL‐AP5. […] Paired student‐t test was performed to calculate the statistical significance. […] Unpaired student‐t test was performed to calculate the statistical significance. *p < .05; NS, not significant.

1/2D NMDA receptor = conditions: read-out: Glutamate potency EC50; cited from earlier work
1/2A NMDA receptor = conditions: read-out: Glutamate potency EC50; cited from earlier work
[1] = system: GluN1/2A/2B triheteromeric (1/2AB) NMDA receptors; assay: TEVC agonist dose-response, Xenopus oocytes expressing 1/2AB; assay type: cell-based; conditions: without CNS4; 100 μM glutamate constant; relative to 1 μM glycine
Text: NMDA receptor constructs: cDNA encoding the NMDA receptor1a subunit (GluN1a) was obtained from Dr. Nakanishi (Kyoto, Japan). cDNA encoding the GluN2B (pci_sepGluN2B), originally developed in the Malinow lab,[33] was purchased from Addgene (cat# 23998), Cambridge, MA. cDNA encoding the GluN2C and GluN2D were purchased from GenScript, New Jersey, USA. Mutated GluN1, 2A and 2B cDNA constructs capable of assembling as GluN1/2A/2B triheteromeric (1/2AB) receptors[34] were obtained from Dr. Paoletti (Laboratoire de Neurobiologie, CNRS). These constructs have been previously tested for 1/2AB receptor activity of GluN1/2A receptor‐selective potentiators.[35] […] Plasmids were linearized with NotI (GluN1a and all five GluN1 mutants) or Avrll (GluN2B), or BstB1 (GluN2C and GluN2D) and transcribed in vitro with T7 (GluN1a, GluN1/2A, GluN2B, GluN2C & GluN2D), and SP6 (GluN1 mutants) RNA polymerase using the mMessage mMachine transcription kits (Invitrogen by Thermo Fisher Scientific).
Stage IV frog oocytes were obtained from Xenopus‐I, (Ann Arbor, MI, USA). NMDA receptor subunit cRNAs were suspended in nuclease free sterile water. GluN1A, GluN2B, GluN2C, GluN2D and GluN1/2A/2B cRNAs were mixed in a ratio of 1:1–3. 50 nL of the final cRNA mixture was microinjected (40–70 ng total) into the oocyte cytoplasm. Oocytes were incubated in ND‐96 solution at 18°C prior to electrophysiological recordings (2–5 days).
Electrophysiological responses were measured using a standard two‐microelectrode voltage‐clamp workstation (Warner Instruments model OC‐725C) designed to provide a fast clamp of large cells. The recording buffer contained 116 mM NaCl, 2 mM KCl, 0.3 mM BaCl2, and 5 mM HEPES, pH 7.4. Response magnitude was determined in Xenopus oocytes expressing different NMDA receptor subunits (GluN1/2A, 1/2B, 1/2C, 1/2D, and 1/2A/2B) by the steady plateau response elicited by bath application of different agonist concentrations. […] All data points were obtained from the steady state currents unless stated otherwise. Dose–response relationships were fit to an appropriate curve‐fitting equation using GraphPad Prism‐7. Non‐linear regression was used to calculate EC50, IC50, and fold change or percentage maximal response. Curves were fit using the following equations as performed in the previous studies, [37]: Y=100/1+10^LogEC50−XorY=Bottom+Top−Bottom/1+10^LogEC50−X . Statistical significance was determined at the overall alpha level 0.05, using appropriate statistical methods as described in all figure captions. Technical and biological replicates are explicitly mentioned in each figure legend, as n = X (Y). X represents technical repeats (number of traces) and Y represents biological repeats (number of oocytes or HEK293T cells studied). […]

[2] = 100 μM antagonist plus 100 μM CNS4

Row | Compound | Block of agonist-induced currents (GluN1/2D NMDA receptors; 100 μM antagonist alone) | Block of agonist-induced currents (GluN1/2D NMDA receptors; [2]) | Block of agonist-induced currents (GluN1/2A NMDA receptors; 100 μM antagonist alone) | Block of agonist-induced currents (GluN1/2A NMDA receptors; [2]) | EC50 (1/2D NMDA receptor) | EC50 (1/2A NMDA receptor) | Glycine efficacy: relative fold change in current at highest glycine concentration [1]
1 | NC(CCCP(=O)(O)O)C(=O)O (stereo not drawn) [DL‐AP5] | 18.28 ± 10.47% and ~ 18% | 5.96 ± 10.59% | 39.53 ± 1.22% and ~ 39% | 38.10 ± 1.28% | – | – | –
2 | N[C@@H](CCC(=O)O)C(=O)O [glutamate, L‐glutamate] | – | – | – | – | ~500 nM | ~3000 nM | –
3 | O=C(O)c1cc(=O)c2c(Cl)cc(Cl)cc2[nH]1 [DCKA] | – | 62.09 ± 2.27% | 97.85 ± 0.66% | 98.98 ± 0.21% | – | – | –
4 | NCC(=O)O [glycine, reference compound] | – | – | – | – | – | – | 2.37 ± 0.23 fold
